{"source": "patent US20210283099A1", "about": "“CDC7 KINASE INHIBITORS AND USES THEREOF” (SLOAN-KETTERING INSTITUTE FOR CANCER RESEARCH, priority 2010, published 2021)", "test_system": "HeLa cells", "assay": "S phase checkpoint western blot analysis", "type": "cell-based, human", "details": "SDS-PAGE and western blot", "protocol": "FIG. 15. […] HeLa cells were incubated in the presence of granaticin A or carrier control (DMSO) for the indicated times and whole cell extracts were subjected to SDS-PAGE and western blot analysis. Asyn=asynchronously growing HeLa cells. HU=HeLa cells exposed to hydroxyurea for the indicated time. HU was used as a control for DNA damaging agent that is known to […] the DNA damage checkpoint response. Again, we observed that Mcm2 mobility is shifted in the cells treated with granaticin A. MCM2 mobility is not affected by HU. Activation of the DNA damage/replication checkpoint correlates with ATM/ATR dependent phosphorylation of Chk1 at Ser345."}
{"smiles": "NC(=O)NO", "note": "[HU, hydroxyurea, reference compound]", "values": [{"measurement": "Mcm2 mobility", "value": "not affected"}]}
